Assay [1] concerns the target T1, FP receptor (Rattus norvegicus, UniProt P43118).
T1 construct: Two cell lines containing the FP receptor; host or cells: A7r5 rat thoracic aorta smooth muscle cells
Kind of assay: Agonist stimulation of [3H]IPs production in A7r5 cells. The class given is cell-based. The method, then:
(§1) Confluent monolayer cultures of cells (in a standard 24-well tissue culture plate) expressing the FP receptor are exposed to [^3H]-myo-inositol (1.5 μCi in a volume of 0.5 ml DMEM culture medium supplemented with 2 mM L-glutamine and 10 μg/ml gentamicin sulfate) in the absence of serum, which causes net incorporation of the radioisotope into the phosphotidylinositol membrane lipids. After 24-32 hrs, the medium with the radioisotope is removed and the cells are rinsed once with DMEM/F-12 medium containing 10 mM LiCl (assay medium). Then 0.5 ml of assay medium is added to each well of cells, followed by addition of varying concentrations of an FP receptor agonist (or other test compound). Cells are exposed to the test agent for 30-120 min in a humidified incubator (95% air/5% CO2), maintained at 37° C. […] The presence of LiCl during the agonist stimulation period inhibits phosphatases and permits the accumulation of radiolabelled inositol phosphates (IPs) which is measured by ion exchange chromatography.
(§2) The agonist-dependent production of IPs, which reflects the degree of receptor activation, is quantitatively measured for each well of cells in the 24-well plate by separating the negatively charged radiolabelled IPs from other minor radiolabelled species and free [^3H]-myo-inositol by anion exchange chromatography. […]

Assay [2] concerns the target T1, FP receptor. As to the kind of experiment: Schild analysis: antagonism of fluprostenol-induced [3H]IPs production in A7r5 cells (fixed antagonist, varied agonist). The class given is cell-based. Particulars: for Kb / Kb (potency as antagonist of the FP receptor): Schild analysis; for Kb: read-out: Kb (potency as antagonist of the FP receptor). The method, then:
Confluent monolayer cultures of cells (in a standard 24-well tissue culture plate) expressing the FP receptor are exposed to [^3H]-myo-inositol (1.5 μCi in a volume of 0.5 ml DMEM culture medium supplemented with 2 mM L-glutamine and 10 μg/ml gentamicin sulfate) in the absence of serum, which causes net incorporation of the radioisotope into the phosphotidylinositol membrane lipids. After 24-32 hrs, the medium with the radioisotope is removed and the cells are rinsed once with DMEM/F-12 medium containing 10 mM LiCl (assay medium). Then 0.5 ml of assay medium is added to each well of cells, followed by addition of varying concentrations of an FP receptor agonist (or other test compound). Cells are exposed to the test agent for 30-120 min in a humidified incubator (95% air/5% CO2), maintained at 37° C. Then the assay medium is removed and 1 ml of 0.1 M formic acid is added to the cell monolayer to inactivate the phospholipase C and to the radiolabelled products into the assay medium. The presence of LiCl during the agonist stimulation period inhibits phosphatases and permits the accumulation of radiolabelled inositol phosphates (IPs) which is measured by ion exchange chromatography.
The agonist-dependent production of IPs, which reflects the degree of receptor activation, is quantitatively measured for each well of cells in the 24-well plate by separating the negatively charged radiolabelled IPs from other minor radiolabelled species and free [^3H]-myo-inositol by anion exchange chromatography. This is accomplished by adding 0.9 ml of the cell lysate obtained as described above to a column packed with 1 ml of AG 1-X8 anion exchange resin in the formate form. The elution and separation of the radiolabelled IPs from the column consists of sequential additions to the column of: 1) 10 ml of water; 2) 8 ml of 50 mM ammonium formate; and 3) 4 ml of 1.2 M ammonium formate solution containing 0.1 M formic acid. The first two washes are discarded, and the third is collected in a scintillation vial, to which is added 15 ml of a water-accepting scintillation fluid. These samples, i.e., the radiolabelled IPs formed by the cells in response to stimulation by an FP prostaglandin receptor agonist or other test agent, is then measured by scintillation spectrometry on a beta-counter.
The dependence of the level of the [^3H]IPs production on agonist concentration is analyzed by standard pharmacological methods to determine the potency (EC50 value) and efficacy (maximum response; Emax) of the FP receptor agonist relative to a standard FP receptor agonist such as fluprostenol. […] The agonist stimulation is then continued for the standard time (30-120 min), after which the procedure for quenching the reaction, separating the [^3H]IPs, and anion exchange chromatography is identical to the procedure described above. A compound is considered to be an antagonist in this protocol if it inhibits the agonist-stimulated [^3H]IPs production relative to the production measured in the control experiment (performed in parallel), in which the solvent is substituted for the antagonist.
Two different antagonist protocols are employed: 1) the antagonist concentration is varied while holding the agonist concentration fixed at a concentration approximately 10 times the agonist EC50 value and 2) the antagonist concentration is fixed in a given experiment, with the agonist concentration varied, and several such experiments, each with a different, fixed antagonist concentration, are performed. […] Overall, the Ki and Kb values are synonymous and represent the antagonist potency of the antagonist at equilibrium.

Assay [3] relates to FP receptor. Kind of assay: Schild analysis: antagonism of agonist-stimulated [3H]IPs production, data from 3T3 and A7r5 cells. The format is cell-based, mouse and rat. The following applies: n=9 experiments using 3T3 and A7r5 cells; read-out: Kb (antagonist potency by Schild analysis). Here is the method:
as §1, §2

The target of assay [4] is T1, FP receptor. Kind of assay: Concentration-dependent inhibition of fluprostenol-stimulated [3H]IPs production in A7r5 cells (varied antagonist, fixed agonist). Particulars: fluprostenol fixed at approximately 10 times its EC50, n=3, read-out: Ki (antagonist potency by method of FIG. 2). The class given is cell-based. Here is the method: as §1, §2
Assay [5] deals with FP prostaglandin receptor (Homo sapiens, UniProt P43088). As to the kind of experiment: Selectivity for FP prostaglandin receptor compared to other classes of prostaglandin receptors.
FP prostaglandin receptor, sequence (P43088 whole entry): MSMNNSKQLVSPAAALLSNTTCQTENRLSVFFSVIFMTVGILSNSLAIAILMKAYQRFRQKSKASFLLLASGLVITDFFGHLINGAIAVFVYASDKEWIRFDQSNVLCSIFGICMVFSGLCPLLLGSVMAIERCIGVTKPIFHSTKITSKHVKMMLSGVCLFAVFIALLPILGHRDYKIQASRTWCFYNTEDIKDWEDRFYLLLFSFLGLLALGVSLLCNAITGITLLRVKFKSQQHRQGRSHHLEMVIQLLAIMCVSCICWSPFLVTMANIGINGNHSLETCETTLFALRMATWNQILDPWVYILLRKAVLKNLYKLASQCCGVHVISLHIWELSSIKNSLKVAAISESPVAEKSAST

T1 sequence (P43118 whole entry): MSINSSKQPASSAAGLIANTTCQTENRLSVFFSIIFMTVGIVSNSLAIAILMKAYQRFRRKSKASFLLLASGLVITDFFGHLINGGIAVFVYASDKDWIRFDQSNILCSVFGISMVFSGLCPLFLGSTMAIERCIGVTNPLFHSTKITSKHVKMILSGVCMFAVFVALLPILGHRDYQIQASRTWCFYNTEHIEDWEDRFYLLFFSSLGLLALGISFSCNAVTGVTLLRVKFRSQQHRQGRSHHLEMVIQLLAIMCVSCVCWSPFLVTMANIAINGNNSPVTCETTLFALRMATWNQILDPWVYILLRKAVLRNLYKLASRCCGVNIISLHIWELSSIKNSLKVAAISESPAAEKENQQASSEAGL

With `O=C(O)CCC/C=C\C[C@@H]1[C@@H](/C=C/[C@@H](O)COc2cccc(C(F)(F)F)c2)[C@H](O)C[C@@H]1O` (racemic) [fluprostenol], the “Agonist classification (maximum effect relative to fluprostenol)” value in assay [1] is on record as “full agonist”.

By Kb is commonly meant the equilibrium dissociation constant of an antagonist, usually derived from a functional assay. What is called Ki is a measure of affinity in units of concentration, obtained from inhibition or displacement. Take `CCCCC(F)[C@H](O)/C=C/[C@H]1CC[C@H](O)[C@@H]1C/C=C\CCCC(=O)O` (some centres unmarked) [Compound II]: the Kb in assay [2] (A7r5 cells) stood at 0.132 µM; in assay [3], 0.132 ± 0.022 µM. The “Type of antagonism (shift of fluprostenol dose-response curves)” value in assay [2] (A7r5 cells, maximal effects of fluprostenol unaltered, potency reduced) was “competitive antagonist”. Moreover, the “Fold higher potency as FP receptor antagonist than phloretin” value in assay [2] (from Table 1 Kb values) is “greater than 39 fold”. Also, in assay [4], the inhibition constant (Ki) is 0.324 ± 0.049 µM. In addition, the “Agonist classification (maximum effect relative to fluprostenol)” value in assay [1] is reported as “partial agonist”. Also, the “Selectivity for the FP prostaglandin receptor compared to other classes of prostaglandin receptors” value in assay [5] is listed as “relatively good selectivity”.

In the case of `COc1ccc(Cl)cc1C(=O)NCCc1ccc(S(=O)(=O)NC(=O)NC2CCCCC2)cc1` [Glibenclamide], in assay [2] (A7r5 cells), the Kb was found to be 160 µM.

On to `CCCCC[C@H](O)/C=C/[C@@H]1[C@@H](C/C=C\CCCC(=O)N(C)C)[C@@H](O)C[C@H]1O` [PGF2α dimethyl amide], for which the “Kb (potency as antagonist of the FP receptor)” value in assay [2] (A7r5 cells) is “Inactive”.

For the compound `CCCCC[C@H](O)/C=C/[C@@H]1[C@@H](C/C=C\CCCCN(C)C)[C@@H](O)C[C@H]1O` [PGF2α dimethyl amine], the “Kb (potency as antagonist of the FP receptor)” value in assay [2] (A7r5 cells) is listed as “Inactive”.

As to `O=C(CCc1ccc(O)cc1)c1c(O)cc(O)cc1O` [Phloretin], in assay [2] (A7r5 cells), the Kb was found to be 5.2 µM.

As to `CCCCNC(=O)NS(=O)(=O)c1ccc(C)cc1` [Tolbutamide], the “Kb (potency as antagonist of the FP receptor)” value is “Inactive” in assay [2] (A7r5 cells) and “inactive” in assay [2] (A7r5 cells, listed as tolbutamide).

For the origin of these results see patent US6492417B1, “11-deoxy-16-fluoro-PGF2α analogs as FP receptor antagonists” (Alcon Manufacturing, Ltd., priority 1997, dated 2002).
